Assay results taken from article PMC7905942 (ACS Omega, 2021).

What was measured:
[1] = system: SW620 (colon cancer) cells; assay: SRB cytotoxicity assay, SW620; type: cell-based; conditions: Homo sapiens, SW-620, 48 h, read-out: Cytotoxicity IC50, SW620
[2] = system: PC3 (prostate cancer) cells; assay: SRB cytotoxicity assay, PC3; type: cell-based; conditions: Homo sapiens, 48 h, read-out: Cytotoxicity IC50, PC3
[3] = system: NCI-H23 (lung cancer) cells; assay: SRB cytotoxicity assay, NCI-H23; type: cell-based; conditions: Homo sapiens, NCI-H23, 48 h, read-out: Cytotoxicity IC50, NCI-H23
[4] = biological target: T1, HDAC6 (Homo sapiens, UniProt Q9UBN7); assay: HDAC6 enzyme assay; type: biochemical
T1 sequence (Q9UBN7 1-1215): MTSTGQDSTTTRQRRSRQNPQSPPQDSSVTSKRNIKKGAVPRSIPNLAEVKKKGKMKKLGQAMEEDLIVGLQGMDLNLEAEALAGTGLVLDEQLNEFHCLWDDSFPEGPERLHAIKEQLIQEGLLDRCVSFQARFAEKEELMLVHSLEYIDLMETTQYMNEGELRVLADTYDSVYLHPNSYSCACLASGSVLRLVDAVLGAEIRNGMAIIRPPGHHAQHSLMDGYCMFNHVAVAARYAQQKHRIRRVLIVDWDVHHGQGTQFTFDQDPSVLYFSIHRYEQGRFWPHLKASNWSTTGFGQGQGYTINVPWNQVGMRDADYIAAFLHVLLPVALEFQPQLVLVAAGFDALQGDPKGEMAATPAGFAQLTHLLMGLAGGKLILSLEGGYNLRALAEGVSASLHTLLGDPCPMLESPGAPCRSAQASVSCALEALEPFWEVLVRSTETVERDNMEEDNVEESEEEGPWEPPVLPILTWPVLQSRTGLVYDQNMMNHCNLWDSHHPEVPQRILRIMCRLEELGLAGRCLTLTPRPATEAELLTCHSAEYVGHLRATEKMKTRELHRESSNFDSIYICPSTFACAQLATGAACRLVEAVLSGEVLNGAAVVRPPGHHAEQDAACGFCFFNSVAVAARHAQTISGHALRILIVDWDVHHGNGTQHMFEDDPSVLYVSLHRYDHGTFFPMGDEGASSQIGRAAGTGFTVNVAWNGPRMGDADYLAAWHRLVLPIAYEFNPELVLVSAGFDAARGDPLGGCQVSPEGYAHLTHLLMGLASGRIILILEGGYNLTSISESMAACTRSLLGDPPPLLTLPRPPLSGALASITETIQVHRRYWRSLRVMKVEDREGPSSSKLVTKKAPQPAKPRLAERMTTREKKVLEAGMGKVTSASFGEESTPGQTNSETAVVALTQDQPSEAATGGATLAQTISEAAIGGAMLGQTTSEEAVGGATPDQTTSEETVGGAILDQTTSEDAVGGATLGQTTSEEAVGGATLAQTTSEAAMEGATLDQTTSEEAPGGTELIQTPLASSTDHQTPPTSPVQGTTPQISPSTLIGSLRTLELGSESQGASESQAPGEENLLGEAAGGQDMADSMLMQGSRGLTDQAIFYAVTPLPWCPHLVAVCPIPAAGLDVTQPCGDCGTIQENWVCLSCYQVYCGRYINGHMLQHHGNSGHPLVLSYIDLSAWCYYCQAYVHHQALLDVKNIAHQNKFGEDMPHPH

[5] = system: HDAC (Hela cell nuclear extract); type: biochemical; conditions: for fold more potent than SAHA: HDAC inhibitory activity and cytotoxicity together; for fold higher HDAC IC50 than that of SAHA: Hela cell nuclear extract
[6] = system: SW620 human colon cancer cells; assay: Cell cycle analysis by flow cytometry; type: cell-based; conditions: compounds 10 μM, SAHA 1 μM, 24 h, vehicle 6.29%
[7] = system: SW620 human colon cancer cells; assay: Annexin V-FITC/PI dual staining apoptosis assay; type: cell-based; conditions: 10 μM, 24 h
[8] = system: SW620, PC3 and NCI-H23 cancer cell lines; assay: SRB cytotoxicity, range over three human cancer cell lines; type: cell-based; conditions: read-out: Cytotoxicity IC50 values (range over cell lines)

| Compound | IC50 [1] | IC50 [2] | IC50 [3] | IC50 [4] | other results |
| --- | --- | --- | --- | --- | --- |
| O=C(/C=C/c1ccc2ncn(CCO)c(=O)c2c1)NO [Compound 9c, (E)-N-Hydroxy-3-(3-(2-hydroxyethyl)-4-oxo-3,4-dihydroquinazolin-6-yl)acrylamide] | 3670 ± 67 nM | 4650 ± 171 nM | 4309 ± 40 nM | – | – |
| O=C(/C=C/c1ccc2c(=O)n(Cc3cccc(F)c3)cnc2c1)NO [Compound 10j, (E)-3-(3-(3-Fluorobenzyl)-4-oxo-3,4-dihydroquinazolin-7-yl)-N-hydroxyacrylamide] | – | 1396 ± 9 nM | 1914 ± 6 nM | 23 nM | – |
| O=C(/C=C/c1ccc2c(=O)n(CC3CCCCC3)cnc2c1)NO [Compound 10g, (E)-3-(3-(Cyclohexylmethyl)-4-oxo-3,4-dihydroquinazolin-7-yl)-N-hydroxyacrylamide] | – | 2540 ± 26 nM | – | – | fold lower HDAC6 IC50 than IC50 in Hela nuclear extract assay ([4]; HDAC6 vs total HDAC extract): 10 fold |
| CCn1cnc2cc(/C=C/C(=O)NO)ccc2c1=O [Compound 10a, (E)-3-(3-Ethyl-4-oxo-3,4-dihydroquinazolin-7-yl)-N-hydroxyacrylamide] | – | 1681 ± 8 nM | 2350 ± 56 nM | 80 nM | – |
| CCCn1cnc2ccc(/C=C/C(=O)NO)cc2c1=O [Compound 9d, (E)-N-Hydroxy-3-(4-oxo-3-propyl-3,4-dihydroquinazolin-6-yl)acrylamide] | – | 2870 ± 224 nM | 1620 ± 74 nM | – | – |
| O=C(/C=C/c1ccc2c(=O)n(Cc3ccc(F)cc3)cnc2c1)NO [Compound 10k, (E)-3-(3-(4-Fluorobenzyl)-4-oxo-3,4-dihydroquinazolin-7-yl)-N-hydroxyacrylamide] | – | 1490 ± 23 nM | 1490 ± 18 nM | 42 ± 1 nM | – |
| O=C(/C=C/c1ccc2ncn(Cc3ccc(F)cc3)c(=O)c2c1)NO [Compound 9k, (E)-3-(3-(4-Fluorobenzyl)-4-oxo-3,4-dihydroquinazolin-6-yl)-N-hydroxyacrylamide] | 1900 ± 55 nM | 1040 ± 13 nM | 1370 ± 72 nM | – | – |
| O=C(/C=C/c1cccc(S(=O)(=O)Nc2ccccc2)c1)NO [Belinostat, belinostat, reference compound] | – | 2530 ± 170 nM | – | – | – |
| Cc1ccc(Cn2cnc3cc(/C=C/C(=O)NO)ccc3c2=O)cc1 [Compound 10m, (E)-N-Hydroxy-3-(3-(4-methylbenzyl)-4-oxo-3,4-dihydroquinazolin-7-yl)acrylamide] | 898 ± 47 nM | 1210 ± 50 nM | 769 ± 9 nM | 47 ± 1 nM | fold more potent than SAHA [5]: 2- to 3 fold; cells in G2/M phase [6]: 30.11%; induction of apoptosis (in words) [7]: substantially induced both early and late apoptosis; IC50 [8]: 671 to 1210 nM |
| O=C(/C=C/c1ccc2ncn(CCCl)c(=O)c2c1)NO [Compound 9b, (E)-3-(3-(2-Chloroethyl)-4-oxo-3,4-dihydroquinazolin-6-yl)-N-hydroxyacrylamide] | 4040 ± 53 nM | 3970 ± 391 nM | – | – | fold higher HDAC IC50 than that of SAHA [5]: ~20 fold; IC50 [8]: 3200 to 7040 nM |
| CCn1cnc2ccc(/C=C/C(=O)NO)cc2c1=O [Compound 9a, (E)-3-(3-Ethyl-4-oxo-3,4-dihydroquinazolin-6-yl)-N-hydroxyacrylamide] | – | – | 5787 ± 3 nM | – | fold higher HDAC IC50 than that of SAHA [5]: approximately 10 fold; IC50 [8]: 3200 to 7040 nM |
| O=C(/C=C/c1ccc2ncn(Cc3ccccc3F)c(=O)c2c1)NO [Compound 9i, (E)-3-(3-(2-Fluorobenzyl)-4-oxo-3,4-dihydroquinazolin-6-yl)-N-hydroxyacrylamide] | – | – | 659 ± 20 nM | – | IC50 [8]: 639 to 1120 nM |
| O=C(/C=C/c1ccc2ncn(Cc3ccc(Cl)cc3)c(=O)c2c1)NO [Compound 9l, (E)-3-(3-(4-Chlorobenzyl)-4-oxo-3,4-dihydroquinazolin-6-yl)-N-hydroxyacrylamide] | – | 1370 ± 30 nM | 1660 ± 28 nM | – | – |
| O=C(/C=C/c1ccc2ncn(CC3CCCCC3)c(=O)c2c1)NO [Compound 9g, (E)-3-(3-(Cyclohexylmethyl)-4-oxo-3,4-dihydroquinazolin-6-yl)-N-hydroxyacrylamide] | – | 997 ± 18 nM | 1291 ± 3 nM | – | – |
| O=C(/C=C/c1ccc2c(=O)n(CCCl)cnc2c1)NO [Compound 10b, (E)-3-(3-(2-Chloroethyl)-4-oxo-3,4-dihydroquinazolin-7-yl)-N-hydroxyacrylamide] | – | 5550 ± 231 nM | 7660 ± 691 nM | 322 ± 13 nM | – |
| O=C(/C=C/c1ccc2c(=O)n(CCO)cnc2c1)NO [Compound 10c, (E)-N-Hydroxy-3-(3-(2-hydroxyethyl)-4-oxo-3,4-dihydroquinazolin-7-yl)acrylamide] | – | 5050 ± 399 nM | – | 96 ± 6 nM | – |
| CCCCn1cnc2ccc(/C=C/C(=O)NO)cc2c1=O [Compound 9e, (E)-3-(3-Butyl-4-oxo-3,4-dihydroquinazolin-6-yl)-N-hydroxyacrylamide] | 1960 ± 103 nM | 1689 ± 14 nM | 1450 ± 15 nM | – | – |
| O=C(/C=C/c1ccc2c(=O)n(Cc3ccc(Cl)cc3)cnc2c1)NO [Compound 10l, (E)-3-(3-(4-Chlorobenzyl)-4-oxo-3,4-dihydroquinazolin-7-yl)-N-hydroxyacrylamide] | – | 767 ± 25 nM | 899 ± 45 nM | 33 nM | fold more potent than SAHA [5]: 2- to 3 fold; cells in G2/M phase [6]: 26.70%; induction of apoptosis (in words) [7]: substantially induced both early and late apoptosis; IC50 [8]: 671 to 1210 nM |
| CCCCn1cnc2cc(/C=C/C(=O)NO)ccc2c1=O [Compound 10e, (E)-3-(3-Butyl-4-oxo-3,4-dihydroquinazolin-7-yl)-N-hydroxyacrylamide] | 3685 ± 27 nM | 2860 ± 94 nM | 2749 ± 16 nM | 29 nM | – |
| O=C(/C=C/c1ccc2ncn(Cc3cccc(F)c3)c(=O)c2c1)NO [Compound 9j, (E)-3-(3-(3-Fluorobenzyl)-4-oxo-3,4-dihydroquinazolin-6-yl)-N-hydroxyacrylamide] | 2060 ± 58 nM | 1280 ± 13 nM | 1669 ± 5 nM | – | – |
| Cc1ccc(Cn2cnc3ccc(/C=C/C(=O)NO)cc3c2=O)cc1 [Compound 9m, (E)-N-Hydroxy-3-(3-(4-methylbenzyl)-4-oxo-3,4-dihydroquinazolin-6-yl)acrylamide] | – | 1260 ± 26 nM | 1380 ± 30 nM | – | – |
| O=C(/C=C/c1ccc2c(=O)n(Cc3ccccc3)cnc2c1)NO [Compound 10h, (E)-3-(3-Benzyl-4-oxo-3,4-dihydroquinazolin-7-yl)-N-hydroxyacrylamide] | – | 1320 ± 25 nM | 1180 ± 15 nM | 40 ± 1 nM | – |
| O=C(/C=C/c1ccc2ncn(CC3CCCC3)c(=O)c2c1)NO [Compound 9f, (E)-3-(3-(Cyclopentylmethyl)-4-oxo-3,4-dihydroquinazolin-6-yl)-N-hydroxyacrylamide] | – | 1220 ± 100 nM | 952 ± 29 nM | – | – |
| O=C(/C=C/c1ccc2c(=O)n(Cc3ccccc3F)cnc2c1)NO [Compound 10i, (E)-3-(3-(2-Fluorobenzyl)-4-oxo-3,4-dihydroquinazolin-7-yl)-N-hydroxyacrylamide] | – | 1950 ± 66 nM | 2100 ± 132 nM | 25 ± 1 nM | – |
| CCCn1cnc2cc(/C=C/C(=O)NO)ccc2c1=O [Compound 10d, (E)-N-Hydroxy-3-(4-oxo-3-propyl-3,4-dihydroquinazolin-7-yl)acrylamide] | – | 1500 ± 135 nM | 1900 ± 53 nM | 48 ± 2 nM | – |
| O=C(/C=C/c1ccc2c(=O)n(CC3CCCC3)cnc2c1)NO [Compound 10f, (E)-3-(3-(Cyclopentylmethyl)-4-oxo-3,4-dihydroquinazolin-7-yl)-N-hydroxyacrylamide] | 3210 ± 83 nM | – | 3160 ± 213 nM | 22 nM | – |
